In PubChem BioAssay (NCI):
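These data come from cells grown in 96-well plates and exposed to compound for 48 hours at five concentrations. The concentration for 50% growth inhibition is given as GI50. TGI: total growth inhibition.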

Legend:
Experiment in all cases: NCI tumour cell line growth inhibition, 48 h
[1] = test system: MDA-MB-468 breast
[2] = test system: U251 CNS
[3] = test system: SNB-75 CNS
[4] = test system: UO-31 renal
[5] = test system: SNB-19 CNS
[6] = test system: MDA-MB-231 breast
[7] = test system: HL-60(TB) leukemia
[8] = test system: RXF 393 renal
[9] = test system: LOX IMVI melanoma
[10] = test system: MDA-MB-435
[11] = test system: OVCAR-8 ovarian
[12] = test system: A549 NSCLC
[13] = test system: SF-539 CNS
[14] = test system: UACC-62 melanoma
[15] = test system: SF-295 CNS
[16] = test system: MOLT-4 leukemia
[17] = test system: SK-MEL-28 melanoma
[18] = test system: SN12C renal
[19] = test system: DU-145 prostate
[20] = test system: OVCAR-3 ovarian
[21] = test system: M14 melanoma
[22] = test system: T-47D breast
[23] = test system: NCI-H522 lung
[24] = test system: EKVX NSCLC
[25] = test system: CCRF-CEM leukemia
[26] = test system: SK-MEL-5 melanoma
[27] = test system: SK-MEL-2 melanoma
[28] = test system: CAKI-1 renal
[29] = test system: NCI-H23 lung
[30] = test system: PC-3 prostate
[31] = test system: A498 renal
[32] = test system: NCI-H226 lung
[33] = test system: COLO 205 colon
[34] = test system: RPMI-8226 leukemia
[35] = test system: SR leukemia
[36] = test system: UACC-257 melanoma
[37] = test system: HT29 colon
[38] = test system: IGROV1 ovarian
[39] = test system: OVCAR-4 ovarian
[40] = test system: SK-OV-3 ovarian
[41] = test system: 786-0 renal
[42] = test system: HCC-2998 colon
[43] = test system: TK-10 renal
[44] = test system: SF-268 CNS
[45] = test system: NCI-H460 lung
[46] = test system: HOP-62 NSCLC
[47] = test system: MALME-3M melanoma
[48] = test system: HS 578T breast
[49] = test system: HCT-15 colon
[50] = test system: K-562 leukemia
[51] = test system: ACHN renal
[52] = test system: OVCAR-5 ovarian
[53] = test system: MCF7 breast
[54] = test system: KM12 colon
[55] = test system: HCT-116 colon
[56] = test system: HOP-92 NSCLC
[57] = test system: SW-620 colon

CN1CCCN(Cc2ccc(C(=O)Nc3cccc(Nc4ccc5cc(O)ccc5n4)c3)cc2C(F)(F)F)CC1
GI50 [1]: 8.88 µM | TGI [1]: 21.6 µM | GI50 [2]: 14.8 µM | TGI [2]: 30.6 µM | GI50 [3]: 1.17 µM | TGI [3]: 16.7 µM | GI50 [4]: 15.2 µM | TGI [4]: 29.7 µM | GI50 [5]: 17 µM | TGI [5]: 31.7 µM | GI50 [6]: 13.9 µM | TGI [6]: 27.5 µM | GI50 [7]: 11.9 µM | TGI [7]: 31.8 µM | GI50 [8]: 12.5 µM | TGI [8]: 26.1 µM | GI50 [9]: 12.1 µM | TGI [9]: 25 µM | GI50 [10]: 10.4 µM | TGI [10]: 22.1 µM | GI50 [11]: 18.9 µM | TGI [11]: 37.2 µM | GI50 [12]: 16.2 µM | TGI [12]: 33.1 µM | GI50 [13]: 11.3 µM | TGI [13]: 24 µM | GI50 [14]: 15.9 µM | TGI [14]: 30 µM | GI50 [15]: 17.3 µM | TGI [15]: 33.4 µM | GI50 [16]: 2.05 µM | TGI [16]: 14.5 µM | GI50 [17]: 13.9 µM | TGI [17]: 29 µM | GI50 [18]: 17.3 µM | TGI [18]: 31.7 µM | GI50 [19]: 16.9 µM | TGI [19]: 30.6 µM | GI50 [20]: 16.3 µM | TGI [20]: 29.9 µM | GI50 [21]: 12.7 µM | TGI [21]: 27.8 µM | GI50 [22]: 15.8 µM | TGI [22]: 33.3 µM | GI50 [23]: 17 µM | TGI [23]: 32 µM | GI50 [24]: 16 µM | TGI [24]: 31.3 µM | GI50 [25]: 4.94 µM | TGI [25]: 25.7 µM | GI50 [26]: 16.1 µM | TGI [26]: 29.6 µM | GI50 [27]: 17.2 µM | TGI [27]: 31.8 µM | GI50 [28]: 14.1 µM | TGI [28]: 27.8 µM | GI50 [29]: 16.8 µM | TGI [29]: 32.1 µM | GI50 [30]: 13.1 µM | TGI [30]: 28.5 µM | GI50 [31]: 17.6 µM | TGI [31]: 32 µM | GI50 [32]: 13.8 µM | TGI [32]: 28.9 µM | GI50 [33]: 18.5 µM | TGI [33]: 33.3 µM | GI50 [34]: 11.4 µM | TGI [34]: 35.9 µM | GI50 [35]: 1.89 µM | TGI [35]: 5.3 µM | GI50 [36]: 14.7 µM | TGI [36]: 29.1 µM | GI50 [37]: 13.3 µM | TGI [37]: 28.8 µM | GI50 [38]: 17.2 µM | TGI [38]: 32 µM | GI50 [39]: 15 µM | TGI [39]: 30 µM | GI50 [40]: 17.6 µM | TGI [40]: 32 µM | GI50 [41]: 16 µM | TGI [41]: 30.1 µM | GI50 [42]: 16.5 µM | TGI [42]: 30.5 µM | GI50 [43]: 18.5 µM | TGI [43]: 32.8 µM | GI50 [44]: 17.3 µM | TGI [44]: 36.1 µM | GI50 [45]: 18 µM | TGI [45]: 36.7 µM | GI50 [46]: 17.8 µM | TGI [46]: 31.8 µM | GI50 [47]: 12.6 µM | TGI [47]: 25.6 µM | GI50 [48]: 14.8 µM | TGI [48]: 50.2 µM | GI50 [49]: 16.4 µM | TGI [49]: 33.9 µM | GI50 [50]: 1.18 µM | TGI [50]: 4.54 µM | GI50 [51]: 19.7 µM | TGI [51]: 38.4 µM | GI50 [52]: 15.3 µM | TGI [52]: 31 µM | GI50 [53]: 9.83 µM | TGI [53]: 24.7 µM | GI50 [54]: 14.1 µM | TGI [54]: 28.1 µM | GI50 [55]: 6.51 µM | TGI [55]: 22.1 µM | GI50 [56]: 10.4 µM | TGI [56]: 23.3 µM | GI50 [57]: 14.5 µM | TGI [57]: 28.9 µM
